Values joined by “and” are separate entries in the source; they are usually repeats but may differ in a detail not shown here. Equal entries are not always repeated.

Six compounds from PubChem BioAssay AID1963839 (Molecular Pharmacology Branch, DTP, NCI, 2024) can be followed below.

The test concerns 817829-284-R-J1-PDC complex spheroid viability. In words: Anticancer human tumor 817829-284-R-J1-PDC patient-derived colon adenocarcinoma cell line growth inhibition [POLQ]. Particulars: for viability, T/C: stronger effect = lower value. The protocol:
Multicellular complex tumor spheroid response to Polymerase (POL) inhibitors (novobiocin, ART-558, RP6685) in combination with a variety of drugs and investigational agents in selected tumor cell lines
The POL inhibitors (novobiocin, ART-558, and RP6685) were evaluated both individually and in combination with standard of care and investigational anticancer small molecules within a complex spheroid model of solid tumors. . Complex spheroids include a stromal component modeled by human endothelial cells (HUVEC) and fibroblasts modeled by human mesenchymal stem cells (MSCs). The concentration ranges selected for each drug and investigational agent were based upon clinically achievable concentrations if the clinical Cmax of the agent was known.
Compounds. The drugs and investigational agents: novobiocin (NSC847541), ART-558 (NSC835418), RP-6685 (NSC848927), peposertib (NSC802822), ceralasertib (NSC780249), elimusertib (NSC800525), camonsertib (NSC841442), AZD-1390 (NSC803789), olaparib (NSC753686), talazoparib (NSC767125), rucaparib (NSC756644), sotorasib (NSC818433), MRTX-1133 (NSC836407), SN-38 (NSC673596), topotecan (NSC609699), epotoside (NSC141540), doxorubicin (NSC123127), gemcitabine (NSC613327), 5-fluorouracil (NSC19893), paclitaxel (NSC125973), vemurafenib (NSC761431), MSA-2 (NSC828583), SN-011 (NSC837082), adavosertib (NSC754352), prexasertib (NSC758257), carboplatin (NSC241240) and oxaliplatin (NSC266046), were obtained from the National Cancer Institute (NCI) Developmental Therapeutics Program Chemical Repository (21). The FDA-approved anticancer drug set is available from the Developmental Therapeutics Program at https://dtp.cancer.gov/organization/dscb/obtaining/. […] The stock solutions were prepared in dimethyl sulfoxide (DMSO, Sigma-Aldrich, St. Louis, MO, cat. D2650), except for the platinum compounds which were prepared in saline (Quality Biological, Gaithersburg, MD, cat. 114-055-101), at 800-fold the tested concentration and stored at -70 degrees C prior to their use. All drugs and investigational agents were tested over a range starting from a high concentration at or near the clinical Cmax and decreasing in half-log increments. If the clinical Cmax for an agent had not been determined, the highest concentration tested was 10 microM, except for SN-38, which was tested at a high concentration of 1 microM.
Cell Culture. All cells were maintained in an incubator at 37 degrees C and 5% CO2 with 95% humidity. The PDC lines were cultured according to standard operating procedures established by the NCI PDMR (https://pdmr.cancer.gov). Table 3 of the manuscript, lists the cell lines along with the number of the three cell types plated to form the mct-spheroids and media for tumor cell growth. After thawing, all PDC lines, except 997537-175-T-J1-PDC and 415267-285-R-J2-PDC, were cultured in Matrigel-coated flasks prepared with a working solution of 1X Ham's F-12 nutrient mix, without supplementation (Thermo Fisher Scientific, cat. 11765054), 100 U/mL penicillin-streptomycin (Thermo Fisher Scientific, cat. 15140122), and 2.5% Matrigel (Corning Inc., Corning, NY, cat. 354248) for the first three passages. The two PDC lines 997537-175-T-J1-PDC and 415267-285-R-J2-PDC were cultured on uncoated flasks. The 857933-349-R-J2-PDC line was cultured in 6C/Colon 1B media containing advanced DMEM/F-12 (Thermo Fisher Scientific, cat. 12634028), 10 mM HEPES (Thermo Fisher Scientific, cat. 15630080), 1X GlutaMAX supplement (Thermo Fisher Scientific, cat. 35050061), 0.1 mg/mL primocin (InvivoGen, San Diego, CA, cat. ant-pm-2), 10% defined fetal bovine serum, heat inactivated (HyClone Laboratories Inc., Logan, UT, cat. SH30070.03HI), 50% L-WRN conditioned media (ATCC, cat. CRL-3276), 1.25 mM N-Acetyl-L-cysteine (Sigma-Aldrich, cat. A9165), 10 mM nicotinamide (Sigma-Aldrich, cat. N0636), 1X B-27 supplement (Thermo Fisher Scientific, cat. 17504044), 1X N-2 supplement (Thermo Fisher Scientific, cat. […]

The mark [1] stands for this setting: compound alone, run of 11/27/2023.
[2] abbreviates: compound alone, run of 12/05/2023.
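Note: spheroids exposed to compounds for 7 days.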

On to `CC1COCCN1c1cc(C2(O)CC3CCC(C2)O3)c2cnn(-c3ccn[nH]3)c2n1` (configuration not stated), for which the viability, T/C was 25.2% and 23.3% and 30.1% (compound 0.0316 µM); 8.33% and 10.7% and 8.37% (compound 0.1 µM); 4.72% and 4.82% and 4.13% (compound 0.316 µM); 3.5% and 3.16% and 3.44% (compound 1 µM); 3.23% and 3.58% and 4.19% (compound 3.16 µM); 2.41% and 1.97% and 3.04% (compound 10 µM). Also, the IC50 (curve of compound) is < 0.0316 µM.
For the compound `COC1C(OC(N)=O)C(O)C(Oc2ccc3c(O)c(NC(=O)c4ccc(O)c(CC=C(C)C)c4)c(=O)oc3c2C)OC1(C)C` (configuration not stated), the IC50 under setting [1] was > 10 µM.
As to `Cc1cccc(N(C)C(=O)C2C(O)CCN2c2nc(C)cc(C(F)(F)F)c2C#N)c1` (configuration not stated), the viability, T/C (compound 10 µM) was 99.5% [middle of 13 runs]. For the same compound, the half-inhibitory concentration (IC50) reads like this: under setting [1], > 10 µM; under setting [2], > 10 µM.
For the compound `Nc1ccc(C#CCN(C(=O)Cc2ncc(C(F)(F)F)cc2C(F)(F)F)c2ccc(F)cc2)nn1`, the viability, T/C by setting is: (compound 3.16 µM) 97.9% [middle of 13 runs]; (compound 10 µM) 99.7% [middle of 13 runs]. Besides, the IC50 under setting [2] was > 10 µM.
On to `O=C(c1cc(Cc2n[nH]c(=O)c3ccccc23)ccc1F)N1CCN(C(=O)C2CC2)CC1`, for which the viability, T/C (compound 10 µM) was 22.3% and 7.71% and 32.7%.
On to `O=C(c1cc(Cc2n[nH]c(=O)c3ccccc23)ccc1F)N1CCN(C(=O)C2CC2)CC1` + COC1C(OC(N)=O)C(O)C(Oc2ccc3c(O)c(NC(=O)c4ccc(O)c(CC=C(C)C)c4)c(=O)oc3c2C)OC1(C)C, for which the concentration for half-maximal inhibition (IC50) was 2.18 µM (curve of first compound, second compound 0.0316 µM); 4.58 µM (curve of first compound, second compound 0.1 µM); 3.28 µM (curve of first compound, second compound 0.316 µM); 4.29 µM (curve of first compound, second compound 1 µM); 3.83 µM (curve of first compound, second compound 3.16 µM); 4.49 µM (curve of first compound, second compound 10 µM). Also, the viability, T/C runs as follows: (second compound 0.0316 µM, first compound 0.0316 µM) 71.5%; (second compound 0.0316 µM, first compound 0.1 µM) 109%; (second compound 0.0316 µM, first compound 0.316 µM) 88.3%; (second compound 0.0316 µM, first compound 1 µM) 61.2%; (second compound 0.0316 µM, first compound 3.16 µM) 49.8%; (second compound 0.0316 µM, first compound 10 µM) 33.7%. Besides, the viability, T/C is, setting by setting: (second compound 0.1 µM, first compound 0.0316 µM) 94.9%; (second compound 0.1 µM, first compound 0.1 µM) 86.5%; (second compound 0.1 µM, first compound 0.316 µM) 83.7%; (second compound 0.1 µM, first compound 1 µM) 68.2%; (second compound 0.1 µM, first compound 3.16 µM) 68.7%; (second compound 0.1 µM, first compound 10 µM) 25.8%. In addition, the viability, T/C was 105% (second compound 0.316 µM, first compound 0.0316 µM); 98.4% (second compound 0.316 µM, first compound 0.1 µM); 85.7% (second compound 0.316 µM, first compound 0.316 µM); 90.1% (second compound 0.316 µM, first compound 1 µM); 50% (second compound 0.316 µM, first compound 3.16 µM); 32.2% (second compound 0.316 µM, first compound 10 µM). For the same compound, the viability, T/C is 88.3% (second compound 1 µM, first compound 0.0316 µM); 99.9% (second compound 1 µM, first compound 0.1 µM); 81.4% (second compound 1 µM, first compound 0.316 µM); 75.7% (second compound 1 µM, first compound 1 µM); 61.2% (second compound 1 µM, first compound 3.16 µM); 24.3% (second compound 1 µM, first compound 10 µM). The viability, T/C is 114% (second compound 3.16 µM, first compound 0.0316 µM); 92.5% (second compound 3.16 µM, first compound 0.1 µM); 75.2% (second compound 3.16 µM, first compound 0.316 µM); 70.3% (second compound 3.16 µM, first compound 1 µM); 63.2% (second compound 3.16 µM, first compound 3.16 µM); 30.2% (second compound 3.16 µM, first compound 10 µM). Besides, the viability, T/C by setting is: (second compound 10 µM, first compound 0.0316 µM) 90.5%; (second compound 10 µM, first compound 0.1 µM) 95.3%; (second compound 10 µM, first compound 0.316 µM) 68.8%; (second compound 10 µM, first compound 1 µM) 102%; (second compound 10 µM, first compound 3.16 µM) 60.7%; (second compound 10 µM, first compound 10 µM) 25.7%.

In general, viability, T/C refers to the result in the treated group divided by that in the control group, in per cent. As usually defined, the IC50 is the concentration needed to halve the response being measured.
